The values below come from US11028058B2, “Heterocyclic compounds as adenosine antagonists” (NUVATION BIO INC., priority 2017, dated 2021).

The structures appear in SMILES notation. Where two headings read alike, the source gives them in different places.

One may read the IC50 as the point on the concentration scale where inhibition reaches its midpoint.

In experiment [1] the target is HEK-293 cells expressing human recombinant adenosine A2A receptor (Homo sapiens (Human), UniProt P29274). Put plainly: cAMP assay, Assay 2 (Eu-cAMP tracer / ULight-anti-cAMP). Type of experiment: cell-based. As for the experimental part:
The functional activity of compounds was tested using one of the two assays to detect the present of cAMP. Activation of G-protein coupled receptors (such as A2A) results in activation of adenylcyclase which converts ATP into cAMP which is used as a downstream signaling molecule. Therefore, molecules which act as GPCR (or specifically A2A receptor) antagonists cause a decrease in intracellular cAMP concentration.
Both assays used HEK-293 cells expressing human recombinant adenosine A2A receptor were grown prior to the test in media without antibiotic.
Assay 2 (Table B2-2): 100 nL of test articles at 100× of final concentration were transferred to assay plate by Echo. Cells were washed twice with 5 mL of PBS […]. After aspirating the PBS and adding 1.5 mL versine, cells were incubated at 37° C. for 2-5 min. After centrifugation, 4 mL of medium was added and adjusted cell density to 5,000 cells/well with Stimulation Buffer. 10 μL of cells were aliquoted to the assay plate, centrifuged at 1000 rpm for 1 minute, and incubated for 60 minutes at room temperature. 5 μL 4×Eu-cAMP tracer solution and 5 μL 4×Ulight™-anti-cAMP solution were added to assay plate, followed by centrifugation and 60-minute incubation at room temperature. Plates were read on EnVision.
Background: Cyclic AMP is a second messenger, typically raised through Gs and lowered through Gi signalling.

Experiment [2] has as its target human adenosine A2A membrane preparation (Homo sapiens (Human), UniProt P29274). Kind of experiment: Adenosine A2A receptor radioligand binding assay (SPA beads, 3H-SCH 58261, 384 plate). To be noted: for IC50: Table B1-2; for inhibition at 3 µM: read-out: A2a binding % inh @ 3000 nM. As for the experimental part: For the A2A adenosine receptor radioligand binding assay, the following modifications were made to the general protocol. GF/C filters (Perkin Elmer, 6005174), presoaked in 0.01% Brij for 2 h at room temperature were used. Filters were washed six times with 0.5 mL of ice-cold washing buffer (50 mM Tris pH 7.4) and 50 μL of Microscint 20 (Packard) was added in each well. The plates were then incubated for 15 min on an orbital shaker and then counted with a TopCount™ for 1 min/well. Another radioligand binding assay was used to evaluate the binding affinity for the adenosine A2A receptor assay was performed in duplicate in the wells of a 384 plate. Assay buffer contained DPBS 500 mM, MgCl2 0.1 mM, and 1% DMSO. Membrane-bead suspension was prepared by mixing 25.98 μL of human adenosine A2A membrane preparation (Perkin Elmer, RBHA2AM400UA) at 33.4 μg/mL, 28 μL of ADA at 20 μg/mL, and 932 μL of SPA beads at 3.33 mg/mL) and incubated the mixture for 20 min at room temperature. Mixed 20 μL of radiotracer (^3H-SCH 58261) at 15 nM to each well containing test articles at various concentrations and centrifuge the plate at 1000 rpm for 1 minute. Added 30 μL of the membraine-bead suspension to each well. Sealed the plates and incubated for 1 hr at room temperature with vigorous mixing on a plate mixer. Plates were read on Microbeta^2 (Perkin Elmer, 2450-0010).

[3] abbreviates: HEK293, read-out: A2a cAMP % inh @ 100 nM.
Setting [4] is: HEK293, 100 nM, Assay 2, read-out: A2a cAMP % inh @ 100 nM.

Chain of human adenosine A2A membrane preparation (P29274 whole entry): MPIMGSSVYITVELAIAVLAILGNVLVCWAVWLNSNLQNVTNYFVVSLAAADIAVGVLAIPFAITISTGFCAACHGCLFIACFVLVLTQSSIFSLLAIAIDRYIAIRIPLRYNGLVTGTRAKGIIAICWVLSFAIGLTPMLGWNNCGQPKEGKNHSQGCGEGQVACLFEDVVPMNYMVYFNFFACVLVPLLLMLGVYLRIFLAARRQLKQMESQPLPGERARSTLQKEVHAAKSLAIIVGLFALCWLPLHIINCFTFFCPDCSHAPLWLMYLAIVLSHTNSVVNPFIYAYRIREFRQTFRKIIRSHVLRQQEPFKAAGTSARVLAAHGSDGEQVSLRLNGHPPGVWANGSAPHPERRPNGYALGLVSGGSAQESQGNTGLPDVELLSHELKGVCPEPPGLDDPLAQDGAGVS
Chain of HEK-293 cells expressing human recombinant adenosine A2A receptor (P29274 whole entry): as above

As for `Cc1ccn(-c2nc(N)cnc2-c2cc(Cl)c3[nH]ncc3c2)n1` [Compound 1.295, 5-(7-chloro-1H-indazol-5-yl)-6-(3-methyl-1H-pyrazol-1-yl)pyrazin-2-amine], the IC50 stood at 0.033 µM in experiment [1] (Assay 2) and 0.0055 µM in experiment [2].

On to `Cn1ccc(-c2nc(N)cnc2-c2cc(Cl)c3ncccc3c2)n1` [Compound 1.297, 5-(8-chloroquinolin-6-yl)-6-(1-methyl-1H-pyrazol-3-yl)pyrazin-2-amine], for which the IC50 in experiment [1] (Assay 2) turned out to be 0.0479 µM; in experiment [2] it was 0.017 µM.

For the molecule `Cn1ccc(-c2nc(N)cnc2-c2cc(Cl)c3[nH]ncc3c2)n1` [Compound 1.304, 5-(7-chloro-1H-indazol-5-yl)-6-(1-methyl-1H-pyrazol-3-yl)pyrazin-2-amine], the IC50 in experiment [1] (Assay 2) turned out to be 0.04 µM; in experiment [2], 0.009 µM.

As to `Nc1cnc(-c2cc(Cl)c3ncccc3c2)c(-n2ccccc2=O)n1` [Compound 1.308, 1-(6-amino-3-(8-chloroquinolin-6-yl)pyrazin-2-yl)pyridin-2(1H)-one], the IC50 in experiment [1] (Assay 2) and in experiment [2] was above 10 µM each time.

With `Cn1ccc(-c2nc(N)c(C#N)nc2-c2cc(Cl)c3ncccc3c2)n1` [Compound 1.309, 3-amino-6-(8-chloroquinolin-6-yl)-5-(1-methyl-1H-pyrazol-3-yl)pyrazine-2-carbonitrile], the figures for the IC50 in experiment [1] (Assay 2) and in experiment [2] were 0.0131 µM and 0.0016 µM, respectively.

`Cn1ccc(-c2nc(N)cnc2-c2ccc3c(=O)[nH]ccc3c2)n1` [Compound 1.315, 6-(5-amino-3-(1-methyl-1H-pyrazol-3-yl)pyrazin-2-yl)isoquinolin-1-ol]: the IC50 is 1.4 µM in experiment [1] (Assay 2) and 0.101 µM in experiment [2].

Turning to `Cc1ncc(-c2nc(N)cnc2-c2cc(Cl)c3ncccc3c2)s1` [Compound 1.318, 5-(8-chloroquinolin-6-yl)-6-(2-methylthiazol-5-yl)pyrazin-2-amine], the half-inhibitory concentration (IC50) in experiment [1] (Assay 2) was 0.2 µM; in experiment [2], 0.0094 µM.

For the molecule `Cn1cccc(-c2nc(N)cnc2-c2cc(Cl)c3ncccc3c2)c1=O` [Compound 1.329, 3-(6-amino-3-(8-chloroquinolin-6-yl)pyrazin-2-yl)-1-methylpyridin-2(1H)-one], the IC50 in experiment [1] (Assay 2) is above 10 µM.

On to `Cn1ccc(-c2nc(N)cnc2-c2ccc3[nH]c(=O)ccc3c2)n1` [Compound 1.353, 6-(5-amino-3-(1-methyl-1H-pyrazol-3-yl)pyrazin-2-yl)quinolin-2(1H)-one], for which the IC50 in experiment [1] (Assay 2) was above 10 µM.

Take `Cc1cnc(-c2nc(N)cnc2-c2cc(Cl)c3ncccc3c2)s1` [Compound 1.395, 5-(8-chloroquinolin-6-yl)-6-(5-methylthiazol-2-yl)pyrazin-2-amine]: the IC50 in experiment [1] (Assay 2) came out at 0.563 µM.

With `Nc1cnc(-c2ccc3ncccc3c2)c(-c2ccccn2)n1` [Compound No. 1.25, 6-(pyridin-2-yl)-5-(quinolin-6-yl)pyrazin-2-amine], in experiment [1] (setting [3]), the inhibition at 0.1 µM amounted to 6%. In experiment [2], the inhibition at 3 µM came to 48%.

On to `Nc1cnc(-c2ccc3ncoc3c2)c(-c2ccccc2)n1` [Compound No. 1.35, 5-(benzo[d]oxazol-6-yl)-6-phenylpyrazin-2-amine], for which, in experiment [1] (setting [4]), the inhibition at 0.1 µM worked out at 22%. In experiment [2], the inhibition at 3 µM is 64%.

Consider `Nc1cnc(-c2ccc3ncsc3c2)c(-c2ccccc2)n1` [Compound No. 1.36, 5-(benzo[d]thiazol-6-yl)-6-phenylpyrazin-2-amine], for which, in experiment [1] (setting [4]), the inhibition at 0.1 µM stood at 77%. Further, in experiment [2], the inhibition at 3 µM came to 81%.

As for `Cc1ccc(-c2nc(N)cnc2-c2cc(Cl)c3[nH]cnc3c2)o1` [Compound No. 1.45, 5-(7-chloro-1H-benzimidazol-5-yl)-6-(5-methylfuran-2-yl)pyrazin-2-amine], the inhibition at 0.1 µM in experiment [1] (setting [3]) was 100%. In addition, in experiment [2], the inhibition at 3 µM is 91%.

Take `Nc1cnc(-c2ccc3ccccc3c2)c(-c2ccccc2)n1` [Compound No. 1.185, 5-(naphthalen-2-yl)-6-phenylpyrazin-2-amine]: the inhibition at 0.1 µM in experiment [1] (setting [4]) is 9%. Also, the inhibition at 3 µM in experiment [2] amounted to 20%.

For `Nc1cnc(-c2ccc3c(c2)CCCN3)c(-c2ccccc2)n1` [Compound No. 1.186, 6-phenyl-5-(1,2,3,4-tetrahydroquinolin-6-yl)pyrazin-2-amine], the inhibition at 0.1 µM in experiment [1] (setting [4]) is 12%. Also, the inhibition at 3 µM in experiment [2] stood at 30%.

For the molecule `N#Cc1nc(-c2ccc3ncsc3c2)c(-c2ccccc2)nc1N` [Compound No. 1.192, 3-amino-6-(benzo[d]thiazol-6-yl)-5-phenylpyrazine-2-carbonitrile], the inhibition at 0.1 µM in experiment [1] (setting [4]) is 93%. For the same molecule, the inhibition at 3 µM in experiment [2] is 89%.

Regarding `N#Cc1nc(-c2ccc3ncoc3c2)c(-c2ccccc2)nc1N` [Compound No. 1.193, 3-amino-6-(benzo[d]oxazol-6-yl)-5-phenylpyrazine-2-carbonitrile], the inhibition at 0.1 µM in experiment [1] (setting [4]) is 87%. For the same molecule, the inhibition at 3 µM in experiment [2] came to 83%.

Turning to `Cc1ccc(-c2nc(N)cnc2-c2ccc3ncccc3c2)s1` [Compound No. 1.210, 6-(5-methylthiophen-2-yl)-5-(quinolin-6-yl)pyrazin-2-amine], the inhibition at 0.1 µM in experiment [1] (setting [4]) was 100%. For the same molecule, the inhibition at 3 µM in experiment [2] was determined as 100%.

In the case of `Nc1nc(-c2ccccc2)c(-c2ccc3ncccc3c2)nc1C(=O)O` [Compound No. 1.238, 3-amino-5-phenyl-6-(quinolin-6-yl) pyrazine-2-carboxylic acid], in experiment [1] (setting [4]), the inhibition at 0.1 µM stood at 7%. For the same molecule, the inhibition at 3 µM in experiment [2] is 11%.

For the molecule `Nc1nc(-c2ccccc2)c(-c2ccc3ncccc3c2)nc1O` [Compound No. 1.241, 3-amino-5-phenyl-6-(quinolin-6-yl)pyrazin-2-ol], the inhibition at 0.1 µM in experiment [1] (setting [4]) worked out at 80%. In addition, the inhibition at 3 µM in experiment [2] was 86%.

In the case of `Nc1cnc(-c2ccc3[nH]ncc3c2)c(-c2ccccc2)n1` [Compound No. 1.270, 5-(1H-indazol-5-yl)-6-phenylpyrazin-2-amine], the inhibition at 0.1 µM in experiment [1] (setting [4]) came to 100%. In addition, the inhibition at 3 µM in experiment [2] was determined as 100%.

For `Cc1ccn(-c2nc(N)cnc2-c2cc(Cl)c3ncccc3c2)n1` [Compound No. 1.271, 5-(8-chloroquinolin-6-yl)-6-(3-methyl-1H-pyrazol-1-yl)pyrazin-2-amine], the IC50 is 0.05 µM in experiment [1] (Assay 2) and 0.0021 µM in experiment [2].

`NC(=O)c1nc(-c2ccc3ncccc3c2)c(-c2ccccc2)nc1N` [Compound No. 1.272, 3-amino-5-phenyl-6-(quinolin-6-yl)pyrazine-2-carboxamide]: the inhibition at 0.1 µM in experiment [1] (setting [4]) came out at 96%. In experiment [2], the inhibition at 3 µM is 80%.

Turning to `Cc1cccc(CNC(=O)c2nc(-c3ccc4ncccc4c3)c(-c3ccccc3)nc2N)n1` [Compound No. 1.273, 3-amino-N-((6-methylpyridin-2-yl)methyl)-5-phenyl-6-(quinolin-6-yl)pyrazine-2-carboxamide], in experiment [1] (Assay 2), the IC50 stood at 0.012 µM. For the same molecule, the inhibition at 3 µM in experiment [2] turned out to be 100%.

As for `N#Cc1nc(-c2ccc3[nH]ncc3c2)c(-c2ccccc2)nc1N` [Compound No. 1.274, 3-amino-6-(1H-indazol-5-yl)-5-phenylpyrazine-2-carbonitrile], in experiment [1] (setting [4]), the inhibition at 0.1 µM is 60%. In experiment [2], the inhibition at 3 µM worked out at 80%.

With `Nc1nc(-c2ccccc2)c(-c2ccc3ncccc3c2)nc1N1CCOCC1` [Compound No. 1.275, 3-morpholino-6-phenyl-5-(quinolin-6-yl)pyrazin-2-amine], in experiment [1] (setting [4]), the inhibition at 0.1 µM came out at 0%. The inhibition at 3 µM in experiment [2] was 11%.

For the molecule `CN1CCN(c2nc(-c3ccc4ncccc4c3)c(-c3ccccc3)nc2N)CC1` [Compound No. 1.276], the inhibition at 0.1 µM in experiment [1] (setting [4]) was found to be 0%. Besides, the inhibition at 3 µM in experiment [2] turned out to be 24%.

In the case of `N#Cc1nc(-c2cc(Cl)c3[nH]cnc3c2)c(-c2ccccc2)nc1N` [Compound No. 1.277, 3-amino-6-(7-chloro-1H-benzimidazol-5-yl)-5-phenylpyrazine-2-carbonitrile], the inhibition at 0.1 µM in experiment [1] (setting [4]) stood at 44%. Also, the inhibition at 3 µM in experiment [2] amounted to 83%.

Regarding `Nc1cnc(-c2cc(Cl)c3ncccc3c2)c(-c2cc3ccccc3o2)n1` [Compound No. 1.278], the concentration for half-maximal inhibition (IC50) in experiment [1] (Assay 2) came to 0.304 µM. Moreover, the inhibition at 3 µM in experiment [2] was found to be 95%.

For the molecule `Nc1cnc(-c2ccc3ncccc3c2)c(-c2nccs2)n1` [Compound No. 1.279, 5-(quinolin-6-yl)-6-(1,3-thiazol-2-yl)pyrazin-2-amine], in experiment [1] (setting [4]), the inhibition at 0.1 µM came out at 9%. For the same molecule, the inhibition at 3 µM in experiment [2] was determined as 58%.
